In ChEMBL document CHEMBL3244218, “beta-Adrenergic blocking agents with acute antihypertensive activity” (1979):

How the values were obtained:
Rattus norvegicus [1] = test: Antihypertensive activity in spontaneously hypertensive rat assessed as maximum fall in mean arterial pressure at 5 mg/kg, po; format: functional, Artery
Canis familiaris [2] = test: In-vivo beta-adrenergic blocking activity in iv dosed mongrel dog assessed as blockade of isoproterenol-induced hypotension by measuring mean arterial pressure; format: functional; conditions: Canis lupus familiaris, Artery
Canis familiaris [3] = test: Peripheral vasodilating activity in mongrel dog assessed as increase in iliac blood flow at 1600 ug, ia in presence of isoproterenol and 2000 ug/kg timolol; format: functional, Canis lupus familiaris, Artery
Canis familiaris [4] = test: In-vivo beta-adrenergic blocking activity in iv dosed mongrel dog assessed as blockade of isoproterenol-induced tachycardia by measuring heart rate; format: functional; conditions: Canis lupus familiaris
Canis familiaris [5] = species on record: Canis familiaris; test: Peripheral vasodilating activity in mongrel dog assessed as increase in iliac blood flow at 1600 ug, ia; format: functional, Canis lupus familiaris, Artery
Rattus norvegicus [6] = test: Antihypertensive activity in spontaneously hypertensive rat assessed as maximum fall in mean arterial pressure at 20 mg/kg, po; format: functional, Artery
Rattus norvegicus [7] = test: Antihypertensive activity in spontaneously hypertensive rat assessed as maximum fall in mean arterial pressure at 1.25 mg/kg, po; format: functional, Artery
Canis familiaris [8] = test: Peripheral vasodilating activity in mongrel dog assessed as increase in iliac blood flow at 1600 ug, ia in presence of isoproterenol and 1000 ug/kg timolol; format: functional, Canis lupus familiaris, Artery
Canis familiaris [9] = test: In-vivo beta-adrenergic blocking activity in iv dosed mongrel dog assessed as blockade of isoproterenol-induced bronchodilation by measuring pulmonary pressure; format: functional; conditions: Canis lupus familiaris
Rattus norvegicus [10] = test: Antihypertensive activity in spontaneously hypertensive rat assessed as maximum fall in mean arterial pressure at 0.312 mg/kg, po; format: functional, Artery
Canis familiaris [11] = species on record: Canis familiaris; test: Peripheral vasodilating activity in mongrel dog assessed as increase in iliac blood flow at 250 ug, ia; format: functional, Canis lupus familiaris, Artery

CC(C)(C)NCC(O)COc1ccc(-c2ncc(-c3cccnc3)[nH]2)cc1 (racemic)
Activity (Rattus norvegicus [1]): 28 mmHg | ED50 (Canis familiaris [2]): > 1 mg/kg | Activity (Canis familiaris [3]): 40 mL/min | ED50 (Canis familiaris [4]): 0.054 mg/kg | Activity (Canis familiaris [5]): 64 mL/min | Activity (Rattus norvegicus [6]): 13 mmHg

Cc1cc(OC[C@@H](O)CNC(C)(C)C)ccc1-c1ncc(C(F)(F)F)[nH]1
Activity (Rattus norvegicus [1]): 51 mmHg | Activity (Rattus norvegicus [7]): 36 mmHg | ED50 (Canis familiaris [2]): 0.0927 mg/kg | Activity (Canis familiaris [8]): 39 mL/min | ED50 (Canis familiaris [9]): 0.0364 mg/kg | ED50 (Canis familiaris [4]): 0.0157 mg/kg | Activity (Canis familiaris [5]): 36 mL/min

CC(C)(C)NCC(O)COc1ccc(-c2ncc(-c3ccccc3)[nH]2)cc1 (racemic)
Activity (Rattus norvegicus [1]): 30 mmHg | Activity (Rattus norvegicus [7]): 20 mmHg | ED50 (Canis familiaris [2]): 0.083 mg/kg | Activity (Canis familiaris [3]): 42 mL/min | ED50 (Canis familiaris [9]): 0.095 mg/kg | ED50 (Canis familiaris [4]): 0.035 mg/kg | Activity (Canis familiaris [5]): 46 mL/min | Activity (Rattus norvegicus [6]): 54 mmHg

CC(C)(C)NCC(O)COc1ccc(-c2ncc(C(F)(F)F)[nH]2)c2c1CCCC2 (racemic)
ED50 (Canis familiaris [2]): 0.167 mg/kg | Activity (Canis familiaris [8]): -10 mL/min | ED50 (Canis familiaris [9]): 0.1 mg/kg | ED50 (Canis familiaris [4]): 0.228 mg/kg | Activity (Canis familiaris [5]): -15 mL/min | Activity (Rattus norvegicus [6]): 22 mmHg

CC(C)(C)NCC(O)COc1ccc(-c2ncc(-c3ccc(Cl)c(Cl)c3)[nH]2)cc1 (racemic)
Activity (Rattus norvegicus [1]): 35 mmHg | Activity (Rattus norvegicus [7]): 36 mmHg | ED50 (Canis familiaris [2]): 0.117 mg/kg | Activity (Canis familiaris [3]): 15 mL/min | ED50 (Canis familiaris [9]): 0.097 mg/kg | ED50 (Canis familiaris [4]): 0.123 mg/kg | Activity (Canis familiaris [5]): 56 mL/min | Activity (Rattus norvegicus [6]): 49 mmHg

CC(C)(C)NCC(O)COc1ccc(-c2ncc(-c3c(F)c(F)c(F)c(F)c3F)[nH]2)cc1 (racemic)
Activity (Rattus norvegicus [1]): 19 mmHg | Activity (Rattus norvegicus [7]): 21 mmHg | ED50 (Canis familiaris [2]): 0.3 mg/kg | Activity (Canis familiaris [3]): 48 mL/min | ED50 (Canis familiaris [4]): 0.082 mg/kg | Activity (Canis familiaris [5]): 56 mL/min | Activity (Rattus norvegicus [6]): 40 mmHg

CC(=O)Nc1ccc(OCC(O)CNC(C)C)cc1 (stereo not given) [PRACTOLOL]
ED50 (Canis familiaris [2]): 1 mg/kg | ED50 (Canis familiaris [9]): 1.08 mg/kg | ED50 (Canis familiaris [4]): 0.115 mg/kg

Cc1c(OCC(O)CNC(C)(C)C)ccc(-c2ncc(C(F)(F)F)[nH]2)c1C (racemic)
Activity (Rattus norvegicus [1]): 24 mmHg | Activity (Rattus norvegicus [7]): 27 mmHg | ED50 (Canis familiaris [2]): 0.582 mg/kg | Activity (Canis familiaris [8]): 19 mL/min | ED50 (Canis familiaris [9]): 0.055 mg/kg | ED50 (Canis familiaris [4]): 0.071 mg/kg | Activity (Canis familiaris [5]): 23 mL/min | Activity (Rattus norvegicus [6]): 30 mmHg

CC(C)(C)NCC(O)COc1ccc(-c2ncc(C(F)(F)F)[nH]2)c2ccccc12 (racemic)
Activity (Rattus norvegicus [1]): 21 mmHg | ED50 (Canis familiaris [2]): > 1 mg/kg | Activity (Canis familiaris [8]): 40 mL/min | ED50 (Canis familiaris [4]): 0.186 mg/kg | Activity (Canis familiaris [5]): 35 mL/min | Activity (Rattus norvegicus [6]): 40 mmHg

COc1ccc(-c2cnc(-c3ccc(OCC(O)CNC(C)(C)C)cc3)[nH]2)cc1 (racemic)
Activity (Rattus norvegicus [1]): 29 mmHg | Activity (Rattus norvegicus [7]): 21 mmHg | ED50 (Canis familiaris [2]): > 1 mg/kg | Activity (Canis familiaris [3]): 20 mL/min | ED50 (Canis familiaris [4]): 0.04 mg/kg | Activity (Canis familiaris [5]): 25 mL/min | Activity (Rattus norvegicus [10]): 12 mmHg

COC(=O)c1cnc(-c2ccc(OCC(O)CNC(C)(C)C)cc2)[nH]1 (racemic)
Activity (Rattus norvegicus [1]): 17 mmHg | ED50 (Canis familiaris [2]): > 1 mg/kg | Activity (Canis familiaris [3]): 29 mL/min | ED50 (Canis familiaris [4]): 0.04 mg/kg | Activity (Canis familiaris [5]): 80 mL/min | Activity (Rattus norvegicus [6]): 36 mmHg

Cc1cc(OCC(O)CNC(C)(C)C)cc(C)c1-c1ncc(C(F)(F)F)[nH]1 (racemic)
Activity (Rattus norvegicus [1]): 20 mmHg | Activity (Rattus norvegicus [7]): 31 mmHg | ED50 (Canis familiaris [2]): > 1 mg/kg | Activity (Canis familiaris [8]): 10 mL/min | ED50 (Canis familiaris [9]): 0.163 mg/kg | ED50 (Canis familiaris [4]): 0.091 mg/kg | Activity (Canis familiaris [5]): 5 mL/min | Activity (Rattus norvegicus [6]): 30 mmHg

CC(C)(C)NCC(O)COc1ccc(-c2ncc(C(N)=O)[nH]2)cc1 (racemic)
ED50 (Canis familiaris [2]): > 1 mg/kg | ED50 (Canis familiaris [9]): > 1 mg/kg | ED50 (Canis familiaris [4]): 0.262 mg/kg | Activity (Rattus norvegicus [6]): 14 mmHg

CC(C)(C)NCC(O)COc1ccc(-c2ncc(-c3ccccn3)[nH]2)cc1 (racemic)
Activity (Rattus norvegicus [1]): 27 mmHg | Activity (Rattus norvegicus [7]): 6 mmHg | Activity (Rattus norvegicus [6]): 40 mmHg

CC(C)(C)NCC(O)COc1ccc(-c2ncc(-c3ccc(Cl)cc3)[nH]2)cc1 (racemic)
Activity (Rattus norvegicus [1]): 35 mmHg | Activity (Rattus norvegicus [7]): 32 mmHg | ED50 (Canis familiaris [2]): 0.137 mg/kg | ED50 (Canis familiaris [9]): 0.0827 mg/kg | ED50 (Canis familiaris [4]): 0.0562 mg/kg | Activity (Rattus norvegicus [6]): 32 mmHg

CC(C)(C)NCC(O)COc1ccc(-c2ncc(C(F)(F)F)[nH]2)c(Cl)c1Cl (racemic)
Activity (Rattus norvegicus [1]): 16 mmHg | Activity (Rattus norvegicus [6]): 49 mmHg

Cc1cnc(-c2ccc(OC[C@@H](O)CNC(C)(C)C)cc2)[nH]1.O=C(O)/C=C\C(=O)O
Activity (Rattus norvegicus [1]): 19 mmHg | Activity (Rattus norvegicus [7]): 24 mmHg | ED50 (Canis familiaris [2]): 1 mg/kg | Activity (Canis familiaris [3]): 32 mL/min | ED50 (Canis familiaris [9]): 0.277 mg/kg | ED50 (Canis familiaris [4]): 0.03 mg/kg | Activity (Canis familiaris [5]): 59 mL/min | Activity (Rattus norvegicus [6]): 41 mmHg

CC(C)(C)NC[C@H](O)COc1ccc(-c2ncc[nH]2)cc1
Activity (Rattus norvegicus [7]): 19 mmHg | ED50 (Canis familiaris [2]): > 1 mg/kg | Activity (Canis familiaris [3]): 0 mL/min | ED50 (Canis familiaris [4]): 0.067 mg/kg | Activity (Canis familiaris [5]): 30 mL/min | Activity (Rattus norvegicus [6]): 41 mmHg

CC(C)(C)NCC(O)COc1ccc(-c2ncc(-c3ccco3)[nH]2)cc1 (racemic)
ED50 (Canis familiaris [2]): 0.3 mg/kg | Activity (Canis familiaris [3]): 40 mL/min | ED50 (Canis familiaris [4]): 0.015 mg/kg | Activity (Canis familiaris [5]): 80 mL/min | Activity (Rattus norvegicus [6]): 35 mmHg

CC(C)(C)NCC(O)COc1ccc(-c2ncc(C(F)(F)F)[nH]2)c(Cl)c1 (racemic)
Activity (Rattus norvegicus [1]): 36 mmHg | Activity (Canis familiaris [11]): -2 mL/min | Activity (Rattus norvegicus [7]): 28 mmHg | ED50 (Canis familiaris [2]): 0.552 mg/kg | ED50 (Canis familiaris [9]): 0.054 mg/kg | ED50 (Canis familiaris [4]): 0.027 mg/kg | Activity (Canis familiaris [5]): 2 mL/min

NNc1nncc2ccccc12 [HYDRALAZINE]
Activity (Canis familiaris [5]): 66 mL/min

COc1ccc(-c2cnc(-c3ccc(OC[C@@H](O)CNC(C)(C)C)cc3)[nH]2)cc1.O=C(O)/C=C\C(=O)O
Activity (Rattus norvegicus [1]): 28 mmHg | Activity (Rattus norvegicus [7]): 10 mmHg | ED50 (Canis familiaris [2]): 0.525 mg/kg | Activity (Canis familiaris [3]): 16 mL/min | ED50 (Canis familiaris [9]): 0.48 mg/kg | ED50 (Canis familiaris [4]): 0.027 mg/kg | Activity (Canis familiaris [5]): 26 mL/min | Activity (Rattus norvegicus [6]): 39 mmHg

CC(C)(C)NCC(O)COc1ccc(-c2ncc(-c3ccc(F)cc3)[nH]2)cc1 (racemic)
ED50 (Canis familiaris [2]): 0.139 mg/kg | Activity (Canis familiaris [3]): 32 mL/min | ED50 (Canis familiaris [4]): 0.019 mg/kg | Activity (Canis familiaris [5]): 42 mL/min | Activity (Rattus norvegicus [6]): 13 mmHg

CC(C)(C)NC[C@H](O)COc1ccc(-c2ncc(-c3cccs3)[nH]2)cc1.O=C(O)/C=C\C(=O)O
Activity (Rattus norvegicus [1]): 33 mmHg | Activity (Rattus norvegicus [7]): 20 mmHg | ED50 (Canis familiaris [2]): 0.234 mg/kg | Activity (Canis familiaris [3]): 15 mL/min | ED50 (Canis familiaris [9]): 0.433 mg/kg | ED50 (Canis familiaris [4]): 0.014 mg/kg | Activity (Canis familiaris [5]): 23 mL/min | Activity (Rattus norvegicus [10]): 9 mmHg

CC(C)(C)NCC(O)COc1ccc(-c2ncc(C(F)(F)F)[nH]2)cc1Cl (racemic)
Activity (Rattus norvegicus [1]): 5 mmHg | Activity (Canis familiaris [11]): 5 mL/min | ED50 (Canis familiaris [2]): 0.017 mg/kg | ED50 (Canis familiaris [9]): 0.015 mg/kg | ED50 (Canis familiaris [4]): 0.016 mg/kg | Activity (Canis familiaris [5]): 17 mL/min | Activity (Rattus norvegicus [6]): 6 mmHg

CC(C)(C)NCC(O)COc1ccc(-c2nc(-c3cccs3)c[nH]2)cc1 (racemic)
Activity (Rattus norvegicus [1]): 35 mmHg | Activity (Rattus norvegicus [7]): 36 mmHg | ED50 (Canis familiaris [2]): 0.635 mg/kg | Activity (Canis familiaris [3]): 10 mL/min | ED50 (Canis familiaris [4]): 0.016 mg/kg | Activity (Canis familiaris [5]): 28 mL/min | Activity (Rattus norvegicus [10]): 12 mmHg | Activity (Rattus norvegicus [6]): 58 mmHg

CC(C)(C)NCC(O)COc1cc(Cl)c(-c2ncc(C(F)(F)F)[nH]2)c(Cl)c1 (racemic)
Activity (Rattus norvegicus [1]): 30 mmHg | Activity (Rattus norvegicus [7]): 16 mmHg
